Assay results from PubChem BioAssay (NCI).
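Exposure lasted 48 hours, with cells grown in 96-well plates and compounds tested at five concentrations. Abbreviation: GI50, concentration required for 50% inhibition of growth. At the TGI there is no net growth.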

What was measured:
Assay in all cases: NCI-60 cell line screen, 48 h
OVCAR-4 ovarian = tested on: OVCAR-4 ovarian
EKVX NSCLC = tested on: EKVX NSCLC
HOP-62 NSCLC = tested on: HOP-62 NSCLC
HL-60(TB) leukemia = tested on: HL-60(TB) leukemia
SN12C renal = tested on: SN12C renal
NCI-H23 lung = tested on: NCI-H23 lung
PC-3 prostate = tested on: PC-3 prostate
SNB-19 CNS = tested on: SNB-19 CNS
SK-MEL-2 melanoma = tested on: SK-MEL-2 melanoma
SF-539 CNS = tested on: SF-539 CNS
SF-268 CNS = tested on: SF-268 CNS
SK-MEL-28 melanoma = tested on: SK-MEL-28 melanoma
HOP-92 NSCLC = tested on: HOP-92 NSCLC
NCI/ADR-RES ovarian = tested on: NCI/ADR-RES ovarian
UACC-257 melanoma = tested on: UACC-257 melanoma
CCRF-CEM leukemia = tested on: CCRF-CEM leukemia
COLO 205 colon = tested on: COLO 205 colon
MOLT-4 leukemia = tested on: MOLT-4 leukemia
MDA-MB-435 = tested on: MDA-MB-435
UACC-62 melanoma = tested on: UACC-62 melanoma
A498 renal = tested on: A498 renal
HS 578T breast = tested on: HS 578T breast
BT-549 breast = tested on: BT-549 breast
MDA-MB-468 breast = tested on: MDA-MB-468 breast
SF-295 CNS = tested on: SF-295 CNS
TK-10 renal = tested on: TK-10 renal
MDA-MB-231 breast = tested on: MDA-MB-231 breast
MALME-3M melanoma = tested on: MALME-3M melanoma
786-0 renal = tested on: 786-0 renal
M14 melanoma = tested on: M14 melanoma
NCI-H226 lung = tested on: NCI-H226 lung
HT29 colon = tested on: HT29 colon
SK-MEL-5 melanoma = tested on: SK-MEL-5 melanoma
SR leukemia = tested on: SR leukemia
RXF 393 renal = tested on: RXF 393 renal
OVCAR-5 ovarian = tested on: OVCAR-5 ovarian
SW-620 colon = tested on: SW-620 colon
U251 CNS = tested on: U251 CNS
HCC-2998 colon = tested on: HCC-2998 colon
KM12 colon = tested on: KM12 colon
OVCAR-3 ovarian = tested on: OVCAR-3 ovarian
SNB-75 CNS = tested on: SNB-75 CNS
ACHN renal = tested on: ACHN renal
LOX IMVI melanoma = tested on: LOX IMVI melanoma
MCF7 breast = tested on: MCF7 breast
IGROV1 ovarian = tested on: IGROV1 ovarian
K-562 leukemia = tested on: K-562 leukemia
NCI-H522 lung = tested on: NCI-H522 lung
A549 NSCLC = tested on: A549 NSCLC
DU-145 prostate = tested on: DU-145 prostate
T-47D breast = tested on: T-47D breast
HCT-15 colon = tested on: HCT-15 colon
UO-31 renal = tested on: UO-31 renal
CAKI-1 renal = tested on: CAKI-1 renal
OVCAR-8 ovarian = tested on: OVCAR-8 ovarian
HCT-116 colon = tested on: HCT-116 colon
SK-OV-3 ovarian = tested on: SK-OV-3 ovarian

In the case of `CN1CCN(Cc2ccc(C(=O)Nc3cccc(Nc4ccc5c(O)cccc5n4)c3)cc2C(F)(F)F)CC1`, the GI50 (OVCAR-4 ovarian) was 7.39 µM, the TGI (OVCAR-4 ovarian) was 21 µM and the GI50 (EKVX NSCLC) was 3.75 µM. It also gave a TGI (EKVX NSCLC) of 14.1 µM, a GI50 (HOP-62 NSCLC) of 3 µM and a TGI (HOP-62 NSCLC) of 8.85 µM. It also gave a GI50 (HL-60(TB) leukemia) of 2.47 µM, a TGI (HL-60(TB) leukemia) of 5.67 µM and a GI50 (SN12C renal) of 2.34 µM. It also gave a TGI (SN12C renal) of 6.03 µM, a GI50 (NCI-H23 lung) of 2.26 µM and a TGI (NCI-H23 lung) of 4.79 µM. The GI50 (PC-3 prostate) was 2.53 µM, the TGI (PC-3 prostate) was 14.6 µM and the GI50 (SNB-19 CNS) was 2.39 µM. For the same compound, the TGI (SNB-19 CNS) was 5.15 µM, the GI50 (SK-MEL-2 melanoma) was 1.92 µM and the TGI (SK-MEL-2 melanoma) was 3.68 µM. The GI50 (SF-539 CNS) was 1.67 µM, the TGI (SF-539 CNS) was 3.08 µM and the GI50 (SF-268 CNS) was 3.81 µM. The TGI (SF-268 CNS) was 19 µM, the GI50 (SK-MEL-28 melanoma) was 1.77 µM and the TGI (SK-MEL-28 melanoma) was 3.21 µM. It also gave a GI50 (HOP-92 NSCLC) of 1.32 µM, a TGI (HOP-92 NSCLC) of 5.8 µM and a GI50 (NCI/ADR-RES ovarian) of 3.45 µM. For the same compound, the TGI (NCI/ADR-RES ovarian) was 12 µM, the GI50 (UACC-257 melanoma) was 1.92 µM and the TGI (UACC-257 melanoma) was 3.86 µM. The GI50 (CCRF-CEM leukemia) was 2.91 µM, the TGI (CCRF-CEM leukemia) was > 100 µM and the GI50 (COLO 205 colon) was 1.99 µM. The TGI (COLO 205 colon) was 3.94 µM, the GI50 (MOLT-4 leukemia) was 1.86 µM and the TGI (MOLT-4 leukemia) was 5.29 µM. The GI50 (MDA-MB-435) was 1.78 µM, the TGI (MDA-MB-435) was 3.78 µM and the GI50 (UACC-62 melanoma) was 1.73 µM. It also gave a TGI (UACC-62 melanoma) of 3.49 µM, a GI50 (A498 renal) of 17.5 µM and a TGI (A498 renal) of 33.3 µM. It also gave a GI50 (HS 578T breast) of 2.96 µM, a TGI (HS 578T breast) of 21.8 µM and a GI50 (BT-549 breast) of 15.6 µM. It also gave a TGI (BT-549 breast) of 30.2 µM, a GI50 (MDA-MB-468 breast) of 1.62 µM and a TGI (MDA-MB-468 breast) of 3.16 µM. It also gave a GI50 (SF-295 CNS) of 1.65 µM, a TGI (SF-295 CNS) of 3.16 µM and a GI50 (TK-10 renal) of 3.36 µM. For the same compound, the TGI (TK-10 renal) was 13.1 µM, the GI50 (MDA-MB-231 breast) was 1.62 µM and the TGI (MDA-MB-231 breast) was 3.75 µM. The GI50 (MALME-3M melanoma) was 1.67 µM, the TGI (MALME-3M melanoma) was 3.12 µM and the GI50 (786-0 renal) was 2.11 µM. It also gave a TGI (786-0 renal) of 4.28 µM, a GI50 (M14 melanoma) of 2.21 µM and a TGI (M14 melanoma) of 5.67 µM. For the same compound, the GI50 (NCI-H226 lung) was 19.2 µM, the TGI (NCI-H226 lung) was 41.7 µM and the GI50 (HT29 colon) was 2.06 µM. It also gave a TGI (HT29 colon) of 4.41 µM, a GI50 (SK-MEL-5 melanoma) of 1.68 µM and a TGI (SK-MEL-5 melanoma) of 3.07 µM. The GI50 (SR leukemia) was 4.39 µM, the TGI (SR leukemia) was > 100 µM and the GI50 (RXF 393 renal) was 1.66 µM. It also gave a TGI (RXF 393 renal) of 3.58 µM, a GI50 (OVCAR-5 ovarian) of 3.24 µM and a TGI (OVCAR-5 ovarian) of 14.4 µM. For the same compound, the GI50 (SW-620 colon) was 2.24 µM, the TGI (SW-620 colon) was 4.18 µM and the GI50 (U251 CNS) was 2.38 µM. For the same compound, the TGI (U251 CNS) was 5.2 µM, the GI50 (HCC-2998 colon) was 1.89 µM and the TGI (HCC-2998 colon) was 3.36 µM. The GI50 (KM12 colon) was 2.3 µM, the TGI (KM12 colon) was 5.23 µM and the GI50 (OVCAR-3 ovarian) was 3.1 µM. The TGI (OVCAR-3 ovarian) was 8 µM, the GI50 (SNB-75 CNS) was 1.85 µM and the TGI (SNB-75 CNS) was 13.7 µM. For the same compound, the GI50 (ACHN renal) was 2.07 µM, the TGI (ACHN renal) was 4.92 µM and the GI50 (LOX IMVI melanoma) was 1.65 µM. For the same compound, the TGI (LOX IMVI melanoma) was 3.01 µM, the GI50 (MCF7 breast) was 1.74 µM and the TGI (MCF7 breast) was 3.41 µM. It also gave a GI50 (IGROV1 ovarian) of 4.7 µM, a TGI (IGROV1 ovarian) of 17 µM and a GI50 (K-562 leukemia) of 2.42 µM. It also gave a TGI (K-562 leukemia) of 24.5 µM, a GI50 (NCI-H522 lung) of 1.93 µM and a TGI (NCI-H522 lung) of 3.97 µM. It also gave a GI50 (A549 NSCLC) of 4.5 µM, a TGI (A549 NSCLC) of 20 µM and a GI50 (DU-145 prostate) of 4.68 µM. For the same compound, the TGI (DU-145 prostate) was 17.7 µM, the GI50 (T-47D breast) was 10.7 µM and the TGI (T-47D breast) was 26.4 µM. The GI50 (HCT-15 colon) was 1.82 µM, the TGI (HCT-15 colon) was 3.54 µM and the GI50 (UO-31 renal) was 1.99 µM. The TGI (UO-31 renal) was 4.29 µM, the GI50 (CAKI-1 renal) was 2.13 µM and the TGI (CAKI-1 renal) was 5.17 µM. The GI50 (OVCAR-8 ovarian) was 3.56 µM, the TGI (OVCAR-8 ovarian) was 14 µM and the GI50 (HCT-116 colon) was 2.7 µM. For the same compound, the TGI (HCT-116 colon) was > 100 µM, the GI50 (SK-OV-3 ovarian) was 14.4 µM and the TGI (SK-OV-3 ovarian) was 29.2 µM.
